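Compound exposure: 48 hours, 5 concentrations, 96-well plates. Definition used: TGI = concentration required for complete inhibition of growth.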
Tests used:
Test in all cases: NCI-60 cell line screen, 48 h
COLO 205 colon = test system: COLO 205 colon
KM12 colon = test system: KM12 colon
MDA-MB-231 breast = test system: MDA-MB-231 breast
SK-MEL-2 melanoma = test system: SK-MEL-2 melanoma
NCI-H226 lung = test system: NCI-H226 lung
786-0 renal = test system: 786-0 renal
MALME-3M melanoma = test system: MALME-3M melanoma
HS 578T breast = test system: HS 578T breast
EKVX NSCLC = test system: EKVX NSCLC
UO-31 renal = test system: UO-31 renal
MCF7 breast = test system: MCF7 breast
OVCAR-3 ovarian = test system: OVCAR-3 ovarian
OVCAR-8 ovarian = test system: OVCAR-8 ovarian
MDA-MB-435 = test system: MDA-MB-435
HCT-116 colon = test system: HCT-116 colon
SR leukemia = test system: SR leukemia
HCT-15 colon = test system: HCT-15 colon
SK-OV-3 ovarian = test system: SK-OV-3 ovarian
HT29 colon = test system: HT29 colon
U251 CNS = test system: U251 CNS
UACC-62 melanoma = test system: UACC-62 melanoma
ACHN renal = test system: ACHN renal
HOP-62 NSCLC = test system: HOP-62 NSCLC
A549 NSCLC = test system: A549 NSCLC
NCI-H23 lung = test system: NCI-H23 lung
SF-295 CNS = test system: SF-295 CNS
NCI-H522 lung = test system: NCI-H522 lung
SK-MEL-28 melanoma = test system: SK-MEL-28 melanoma
NCI/ADR-RES ovarian = test system: NCI/ADR-RES ovarian
OVCAR-4 ovarian = test system: OVCAR-4 ovarian
M14 melanoma = test system: M14 melanoma
UACC-257 melanoma = test system: UACC-257 melanoma
TK-10 renal = test system: TK-10 renal
RXF 393 renal = test system: RXF 393 renal
OVCAR-5 ovarian = test system: OVCAR-5 ovarian
SF-268 CNS = test system: SF-268 CNS
SN12C renal = test system: SN12C renal
BT-549 breast = test system: BT-549 breast
CAKI-1 renal = test system: CAKI-1 renal
DU-145 prostate = test system: DU-145 prostate
SF-539 CNS = test system: SF-539 CNS
IGROV1 ovarian = test system: IGROV1 ovarian
K-562 leukemia = test system: K-562 leukemia
RPMI-8226 leukemia = test system: RPMI-8226 leukemia
LOX IMVI melanoma = test system: LOX IMVI melanoma
SNB-75 CNS = test system: SNB-75 CNS
MDA-N = test system: MDA-N
NCI-H460 lung = test system: NCI-H460 lung
MOLT-4 leukemia = test system: MOLT-4 leukemia
SNB-19 CNS = test system: SNB-19 CNS
SW-620 colon = test system: SW-620 colon
HCC-2998 colon = test system: HCC-2998 colon
PC-3 prostate = test system: PC-3 prostate
SK-MEL-5 melanoma = test system: SK-MEL-5 melanoma
T-47D breast = test system: T-47D breast
CCRF-CEM leukemia = test system: CCRF-CEM leukemia
A498 renal = test system: A498 renal

SMILES: O=C1c2ccccc2-c2c1c1ccccc1c(=O)n2-c1cccnc1
- TGI (COLO 205 colon): > 100 µM
- TGI (KM12 colon): > 100 µM
- TGI (MDA-MB-231 breast): > 100 µM
- TGI (SK-MEL-2 melanoma): > 100 µM
- TGI (NCI-H226 lung): > 100 µM
- TGI (786-0 renal): 44.7 µM
- TGI (MALME-3M melanoma): > 100 µM
- TGI (HS 578T breast): > 100 µM
- TGI (EKVX NSCLC): > 100 µM
- TGI (UO-31 renal): > 100 µM
- TGI (MCF7 breast): > 100 µM
- TGI (OVCAR-3 ovarian): > 100 µM
- TGI (OVCAR-8 ovarian): > 100 µM
- TGI (MDA-MB-435): > 100 µM
- TGI (HCT-116 colon): > 100 µM
- TGI (SR leukemia): > 100 µM
- TGI (HCT-15 colon): > 100 µM
- TGI (SK-OV-3 ovarian): > 100 µM
- TGI (HT29 colon): > 100 µM
- TGI (U251 CNS): > 100 µM
- TGI (UACC-62 melanoma): > 85.8 µM
- TGI (ACHN renal): > 100 µM
- TGI (HOP-62 NSCLC): 41.8 µM
- TGI (A549 NSCLC): > 100 µM
- TGI (NCI-H23 lung): > 100 µM
- TGI (SF-295 CNS): > 100 µM
- TGI (NCI-H522 lung): 39.3 µM
- TGI (SK-MEL-28 melanoma): > 100 µM
- TGI (NCI/ADR-RES ovarian): > 100 µM
- TGI (OVCAR-4 ovarian): > 100 µM
- TGI (M14 melanoma): > 100 µM
- TGI (UACC-257 melanoma): > 100 µM
- TGI (TK-10 renal): > 100 µM
- TGI (RXF 393 renal): > 100 µM
- TGI (OVCAR-5 ovarian): > 100 µM
- TGI (SF-268 CNS): > 100 µM
- TGI (SN12C renal): > 100 µM
- TGI (BT-549 breast): > 100 µM
- TGI (CAKI-1 renal): > 100 µM
- TGI (DU-145 prostate): > 100 µM
- TGI (SF-539 CNS): > 71.1 µM
- TGI (IGROV1 ovarian): > 100 µM
- TGI (K-562 leukemia): > 100 µM
- TGI (RPMI-8226 leukemia): > 100 µM
- TGI (LOX IMVI melanoma): > 100 µM
- TGI (SNB-75 CNS): > 100 µM
- TGI (MDA-N): > 100 µM
- TGI (NCI-H460 lung): > 100 µM
- TGI (MOLT-4 leukemia): > 28.4 µM
- TGI (SNB-19 CNS): > 100 µM
- TGI (SW-620 colon): > 100 µM
- TGI (HCC-2998 colon): > 100 µM
- TGI (PC-3 prostate): > 100 µM
- TGI (SK-MEL-5 melanoma): > 100 µM
- TGI (T-47D breast): > 100 µM

SMILES: S=C(Nc1c2c(nc3ccccc13)CCCC2)Nc1c2c(nc3ccccc13)CCCC2
- TGI (COLO 205 colon): > 100 µM
- TGI (KM12 colon): > 100 µM
- TGI (MDA-MB-231 breast): > 100 µM
- TGI (SK-MEL-2 melanoma): > 100 µM
- TGI (NCI-H226 lung): > 100 µM
- TGI (786-0 renal): > 100 µM
- TGI (MALME-3M melanoma): > 100 µM
- TGI (HS 578T breast): > 100 µM
- TGI (EKVX NSCLC): > 100 µM
- TGI (UO-31 renal): > 100 µM
- TGI (MCF7 breast): > 100 µM
- TGI (OVCAR-3 ovarian): > 100 µM
- TGI (OVCAR-8 ovarian): > 100 µM
- TGI (MDA-MB-435): > 100 µM
- TGI (HCT-116 colon): > 100 µM
- TGI (SR leukemia): > 100 µM
- TGI (HCT-15 colon): > 100 µM
- TGI (SK-OV-3 ovarian): > 100 µM
- TGI (HT29 colon): > 100 µM
- TGI (U251 CNS): > 100 µM
- TGI (UACC-62 melanoma): > 100 µM
- TGI (ACHN renal): > 100 µM
- TGI (HOP-62 NSCLC): > 100 µM
- TGI (A549 NSCLC): > 100 µM
- TGI (NCI-H23 lung): > 100 µM
- TGI (SF-295 CNS): > 100 µM
- TGI (NCI-H522 lung): > 100 µM
- TGI (SK-MEL-28 melanoma): > 100 µM
- TGI (NCI/ADR-RES ovarian): > 100 µM
- TGI (OVCAR-4 ovarian): > 100 µM
- TGI (M14 melanoma): > 100 µM
- TGI (UACC-257 melanoma): > 100 µM
- TGI (TK-10 renal): > 100 µM
- TGI (RXF 393 renal): > 100 µM
- TGI (OVCAR-5 ovarian): > 100 µM
- TGI (SF-268 CNS): > 100 µM
- TGI (SN12C renal): > 100 µM
- TGI (BT-549 breast): > 100 µM
- TGI (CAKI-1 renal): > 100 µM
- TGI (DU-145 prostate): > 100 µM
- TGI (IGROV1 ovarian): > 100 µM
- TGI (K-562 leukemia): > 100 µM
- TGI (RPMI-8226 leukemia): > 100 µM
- TGI (SNB-75 CNS): > 100 µM
- TGI (MDA-N): > 100 µM
- TGI (NCI-H460 lung): > 100 µM
- TGI (MOLT-4 leukemia): > 100 µM
- TGI (SNB-19 CNS): > 100 µM
- TGI (CCRF-CEM leukemia): > 100 µM
- TGI (SW-620 colon): > 100 µM
- TGI (HCC-2998 colon): > 100 µM
- TGI (A498 renal): > 100 µM
- TGI (PC-3 prostate): > 100 µM
- TGI (SK-MEL-5 melanoma): > 100 µM
- TGI (T-47D breast): > 100 µM
